Data published in patent US5340802A, “Peptide analog type-B CCK receptor ligands” (Abbott Laboratories, priority 1993, dated 1994).

Columns and labels:
[1] = biological target: T1, Type-A CCK receptors (Cavia porcellus, UniProt Q63931); assay: Radioligand binding ([125I]BH-CCK-8) in guinea pig pancreatic membrane preparations; details: pancreatic membranes, 37° C., 150 minutes, read-out: IC50 (nM) Pancreas (Type A)
T1 construct: Cortical and pancreatic membranes were prepared as described; from tissue; host or cells: guinea pig pancreas membranes
T1 sequence (Q63931 1-430): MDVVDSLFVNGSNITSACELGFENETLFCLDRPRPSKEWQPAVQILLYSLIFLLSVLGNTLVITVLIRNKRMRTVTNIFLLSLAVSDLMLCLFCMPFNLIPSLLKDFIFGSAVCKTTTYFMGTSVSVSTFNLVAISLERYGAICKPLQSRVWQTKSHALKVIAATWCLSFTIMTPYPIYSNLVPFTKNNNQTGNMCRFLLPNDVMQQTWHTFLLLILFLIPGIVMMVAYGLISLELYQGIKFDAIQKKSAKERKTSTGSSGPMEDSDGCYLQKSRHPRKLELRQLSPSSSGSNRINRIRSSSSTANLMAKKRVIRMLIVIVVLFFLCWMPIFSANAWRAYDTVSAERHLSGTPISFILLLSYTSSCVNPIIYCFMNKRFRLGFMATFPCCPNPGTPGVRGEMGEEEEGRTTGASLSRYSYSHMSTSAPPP

[2] = biological target: T2, Type-B CCK receptors (Cavia porcellus, UniProt H0VZC5); assay: Radioligand binding ([125I]BH-CCK-8) in guinea pig cerebral cortical membrane preparations; details: cortical membranes, 30° C., 150 minutes, read-out: IC50 (nM) cortex (Type B)
T2 construct: Cortical and pancreatic membranes were prepared as described; from tissue; host or cells: guinea pig cerebral cortex membranes
T2 sequence (H0VZC5 1-426): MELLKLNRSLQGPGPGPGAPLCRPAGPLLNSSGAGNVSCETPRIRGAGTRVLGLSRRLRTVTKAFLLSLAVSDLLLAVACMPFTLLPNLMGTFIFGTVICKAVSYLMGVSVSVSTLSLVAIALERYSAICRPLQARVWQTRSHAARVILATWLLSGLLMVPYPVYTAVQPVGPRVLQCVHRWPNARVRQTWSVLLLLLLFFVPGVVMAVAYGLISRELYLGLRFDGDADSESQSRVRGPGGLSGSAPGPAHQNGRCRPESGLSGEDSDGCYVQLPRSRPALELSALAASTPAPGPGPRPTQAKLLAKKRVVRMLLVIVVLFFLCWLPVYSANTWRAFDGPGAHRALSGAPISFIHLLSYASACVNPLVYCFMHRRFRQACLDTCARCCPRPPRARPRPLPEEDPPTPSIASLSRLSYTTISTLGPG
Protocol: CCK-8 (Asp-Tyr(SO3 H)-Met-Gly-Trp-Met-Asp-Phe-NH2), bestatin and phosphoramidon were purchased from Peptide International (Louisville, Ky.). EGTA, HEPES, BSA were purchased from Sigma Chemical Co. (St. Louis, Mo.). […] Male guinea pigs, 250 to 325 g, were obtained from Scientific Small Animal Laboratory and Farm (Arlington Heights, Ill.). Collagenase, code CLSPA, was purchased from Worthington (Frehold, N.J.).
Cortical and pancreatic membranes were prepared as described (Lin and Miller; J. Pharmacol. Exp. Ther., 1985, 232:775-780). In brief, pancreas and cortex were removed and rinsed with ice-cold saline. Visible fat and connective tissues were removed from the pancreas. Tissues were weighed and homogenized in approximately 25 mL of ice-cold 50 mM Tris-HCl buffer, pH 7.4 at 4° C. with a Brinkman Polytron for 30 seconds, setting 7. The homogenates were centrifuged for 10 minutes at 1075×g and the pellet was discarded. The supernantants were saved and centrifuged at 38,730×g for 20 minutes. The resultant pellets were rehomogenized in 25 mL of 50 mM Tris-HCl buffer with a Teflon-glass homogenizer, 5 up and down strokes. The homogenates were centrifuged again at 38,730×g for 20 minutes. The pellets were then resuspended in 20 mM HEPES, containing 1 mM EGTA, 118 mM NaCl, 4.7 mM KCl, 5 mM MgCl2, 100 μ M bestatin, 3 μM phosphoramidon, pH 7.4 at 22° C. with a Teflon-glass homogenizer, 15 up and down strokes. The resuspension volume used for the cortex was 15 mL per g of original wet weight and 60 mL per g for pancreas.
To 1 mL Skatron polystyrene tubes were added 25 uL of test compounds, 25 uL of [^125 I]BH-CCK8 and 200 uL of membrane suspension. The final BSA concentration was 0.1%. The cortical tissues (source of Type-B CCK receptors) were incubated at 30° C. for 150 minutes and pancreatic tissues (source of Type-A CCK receptors) were incubated at 37° C. for 150 minutes. Incubations were terminated by filtration using a Skatron Cell Harvester and SS32 microfiber filter mats. […] IC50 values were determined from the Hill analysis.

IC50 [1] [nM]	IC50 [2] [nM]	Compound
> 10000	16	CC(C)C[C@H](NC(=O)[C@@H]1Cc2c[nH]c3cccc(c23)CC(=O)N1)C(=O)N[C@@H](CC(=O)O)C(=O)N/C(=C\c1ccccc1)C(N)=O [Example 14, Ctp-Leu-Asp-(dehydro)Phe-NH2]
4770	18	CCC[C@@H]1CCN(C(=O)[C@@H]2Cc3c[nH]c4cccc(c34)CC(=O)N2)[C@@H]1C(=O)N[C@@H](CC(=O)O)C(=O)N[C@@H](Cc1ccccc1)C(N)=O [Example 35, Ctp-Cpp-Asp-Phe-NH2]
1300	8.4	NC(=O)[C@H](Cc1ccccc1)NC(=O)[C@H](CC(=O)O)NC(=O)[C@@H]1CSCCN1C(=O)[C@@H]1Cc2c[nH]c3cccc(c23)CC(=O)N1 [Example 42, Ctp-(1,4-thiazane-3-carbonyl)-Asp-Phe-NH2]
11500	29.9	NC(=O)[C@H](Cc1ccccc1)NC(=O)[C@H](CC(=O)O)NC(=O)[C@@H]1CCCCN1C(=O)[C@@H]1Cc2c[nH]c3cccc(c23)CC(=O)N1 [Example 43, Ctp-Pip-Asp-Phe-NH2]
